# Test results: ChEMBL document CHEMBL1155266, “Synthesis and biological evaluation of new 4-carboxyl quinoline derivatives as cyclooxygenase-2 inhibitors” (Bioorg Med Chem, 2009)
# Biological target: T1, Prostaglandin G/H synthase 1 (Ovis aries, UniProt P05979)
# T1 sequence (P05979 whole entry): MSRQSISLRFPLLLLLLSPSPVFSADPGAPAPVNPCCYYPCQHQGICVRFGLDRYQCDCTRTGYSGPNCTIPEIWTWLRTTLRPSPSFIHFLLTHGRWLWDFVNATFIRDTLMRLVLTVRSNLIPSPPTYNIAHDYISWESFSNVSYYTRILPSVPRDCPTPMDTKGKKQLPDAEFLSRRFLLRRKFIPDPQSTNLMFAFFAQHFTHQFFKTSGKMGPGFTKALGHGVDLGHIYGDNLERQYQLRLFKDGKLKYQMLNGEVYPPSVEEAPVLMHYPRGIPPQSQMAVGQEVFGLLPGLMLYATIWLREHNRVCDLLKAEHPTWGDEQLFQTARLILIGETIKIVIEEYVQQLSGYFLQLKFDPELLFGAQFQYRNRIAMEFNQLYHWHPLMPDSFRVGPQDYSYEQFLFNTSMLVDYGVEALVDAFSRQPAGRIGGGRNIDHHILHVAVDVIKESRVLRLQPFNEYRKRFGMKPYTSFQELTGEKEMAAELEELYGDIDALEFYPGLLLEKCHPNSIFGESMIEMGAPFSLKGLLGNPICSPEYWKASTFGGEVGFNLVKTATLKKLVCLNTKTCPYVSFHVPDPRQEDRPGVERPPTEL
# Description: Inhibition of ovine COX1 by chemiluminescent enzyme assay
row,Compound,IC50 [µM]
1,CS(=O)(=O)c1ccc(-c2cc(C(=O)O)c3ccccc3n2)cc1,13.4
2,CS(=O)(=O)c1ccc(-c2cc(C(=O)O)c3ccc4ccccc4c3n2)cc1,17.6
3,CS(=O)(=O)c1ccc(-c2cc(C(=O)O)c3ccc4c(c3n2)CCCC4)cc1,22.1

# Now from value to molecule:
row,IC50 [µM],Compound
1,14.2,Cc1cccc2c(C(=O)O)cc(-c3ccc(S(C)(=O)=O)cc3)nc12
2,14.5,Cc1ccc2c(C(=O)O)cc(-c3ccc(S(C)(=O)=O)cc3)nc2c1C
3,14.7,CS(=O)(=O)c1ccc(-c2cc(C(=O)O)c3cccc(-c4ccccc4)c3n2)cc1
